Legend:
phospho-Akt = assay: steady-state phospho-Akt, Western immunoblotting; type: cell-based, human
Method: (§1) Unless otherwise indicated, cells were lysed 48 hours after being treated with lysis buffer, as described in Haklai, et al., supra. […] Protein bands were visualized by ECL and quantified by densitometry with Image Master VDS-CL (Amersham) using TINA 2.0 software (Ray Tests). To obtain reliable comparisons between replicated experiments for statistical analysis, a standardization procedure was used, in which the density of each given protein band as recorded with its specific Ab, was normalized. […] The standard average density was defined as 1.0, and each of the individually determined bands was related to this value. […] Actin cytoskeletal elements were labeled with rhodamine-phalloidin, and digital fluorescence images were collected on a Zeiss LSM 510 confocal microscope fitted with fluorescein and rhodamine filters, as described in Gana-Weisz, M., et al., supra.
(§2) Next, to determine whether down-regulation of active Ras by FTS was accompanied by inhibition of Ras signaling, the effect of FTS on steady-state levels of phospho-ERK, phospho-Akt, and RalA-GTP as read-outs of the three prominent Ras pathways, Ras/Raf/MEK/ERK, Ras/PI3K/Akt, and Ras/RalGEF/RalA, respectively, was examined. […]

Ras, ERK, or Akt = assay: total Ras, ERK, Akt in serum-stimulation experiment; type: cell-based, human; details: STS26T cells, serum-stimulation conditions
Method: as §1
First, the time courses of serum-stimulated GTP loading of Ras and serum-stimulated activation of signals downstream of Ras were determined. […]

Ras = assay: steady-state Ras levels, Western immunoblotting; type: cell-based, human; details: 75 μM FTS, 48 hours, all cell lines, P<0.05
Method: Unless otherwise indicated, cells were lysed 48 hours after being treated with lysis buffer, as described in Haklai, et al., supra. […] Protein bands were visualized by ECL and quantified by densitometry with Image Master VDS-CL (Amersham) using TINA 2.0 software (Ray Tests). To obtain reliable comparisons between replicated experiments for statistical analysis, a standardization procedure was used, in which the density of each given protein band as recorded with its specific Ab, was normalized. […] The standard average density was defined as 1.0, and each of the individually determined bands was related to this value. […] Actin cytoskeletal elements were labeled with rhodamine-phalloidin, and digital fluorescence images were collected on a Zeiss LSM 510 confocal microscope fitted with fluorescein and rhodamine filters, as described in Gana-Weisz, M., et al., supra. […]

90-8 cells = assay: cell growth, direct counting of cells, FTS dose-response; type: cell-based; details: Homo sapiens, 72 h, grown three days, FTS 12.5-100 μM, means±SD, n=4, read-out: estimated IC50, decrease in cell number
Method: (§3) The human NF-1 MPNST cell lines ST88-14, T265P21 and 90-8 and the non-NF-1 human MPNST cell line STS26T were obtained from Dr. Nancy Ratner. T265P21, 90-8, and ST88-14 cells were maintained in RPMI/15% fetal calf serum (FCS) medium and STS26T cells were maintained in DMEM/10% FCS, as described in Weisz, B., et al., supra. Cells were plated at a density of 1×10^6 cells per 10-cm plate for biochemical and immunoblotting assays, 2.5×10^3 cells/well in 24-well plates for cell-growth assays, or on glass cover slips (5×10^4 cells per 35-mm dish) for labeling of actin cytoskeletal elements. The cells were incubated for 24 hours, treated with the indicated concentration of FTS or with the vehicle (0.1% DMSO) (control) for the times specified in each of the experiments, and then subjected to the various assays as described below. The effect of FTS on cell growth was estimated by direct counting of cells collected from each well, as described in Weisz, B., et al., supra.
(§4) To determine the effects of the Ras inhibitor FTS on the growth rates of the NF-1 cell lines ST88-14, 90-8, T265P21 and the non-NF-1 STS26T cells, the cells were grown for two days in the absence and in the presence of 50 μM FTS, and then photomicrographed. […] Additionally, cells were grown for three days and then detached, collected, and counted as described in Methods to determine dose-dependent inhibition by FTS.

T265P21 cells = assay: as above; type: cell-based; details: Homo sapiens, 72 h, grown three days, FTS 12.5-100 μM, means±SD, n=4, read-out: estimated IC50, decrease in cell number
Method: as §3, §4

ST88-14 cells = assay: as above; type: cell-based; details: Homo sapiens, 72 h, grown three days, FTS 12.5-100 μM, means±SD, n=4, read-out: estimated IC50, decrease in cell number
Method: as §3, §4

RalA-GTP = assay: steady-state RalA-GTP, GST-RalBD pulldown assay; type: cell-based, human
Method: as §1, §2

In the case of `CC(C)=CCC/C(C)=C/CC/C(C)=C/CSc1ccccc1C(=O)O` [FTS, S-farnesylthiosalicylic acid], the “steady-state phospho-Akt” value (phospho-Akt; all NF-1 cell lines) is reported as “significant reduction”, the “increase in phosphor-Akt” value (phospho-Akt; non-NF-1 STS26T cells, steady state) is reported as 10%-20% and the “total amounts of Ras, ERK, or Akt” value (Ras, ERK, or Akt) is reported as “no effect”. The “reduction in Ras levels” value (Ras) was 15-30%, the IC50 (90-8 cells) was 42 ± 9 µM and the IC50 (T265P21 cells) was 35 ± 7 µM. For the same compound, the IC50 (ST88-14 cells) was 42 ± 13 µM, the “steady-state RalA-GTP” value (RalA-GTP; all NF-1 cell lines) was “significant reduction” and the “steady-state RalA-GTP” value (RalA-GTP; non-NF-1 STS26T cells) was “significant reduction”.
